{
  "source": "paper PMC7955072",
  "about": "(Nature Communications, 2021)",
  "key": {"[1]": {"system": "protein translation in rabbit reticulocyte lysate", "test": "In vitro translation assay of luciferase mRNA in rabbit reticulocyte lysate", "conditions": "replicates I-III", "quoted_text": "(§1) After incubating at 30 °C for 1.5 h, 2.5 μL of the reaction was transferred to a 384-well plate and mixed with 25 μL of Luciferase Assay Reagent (Promega). The luminescence was read on a FlexStation 3 multimode microplate reader (Molecular Devices)."}, "[2]": {"system": "protein translation in rabbit reticulocyte lysate", "test": "Rescue of RM-A-inhibited in vitro translation by C-terminal truncated human IleRS or its variants", "conditions": "200 nM RM-A; 3 μM C-terminal truncated human IleRS R459A", "quoted_text": "as §1"}, "[3]": {"system": "other AARS family members (LeuRS, ValRS)", "conditions": "cited from earlier work"}, "[4]": {"system": "ovarian cancer and prostate cancer growth", "conditions": "cited from earlier work"}, "[5]": {"system": "ScIleRS Thr571 to Tyr or Arg variants", "test": "TSA, ScIleRS with Thr571 mutated to Tyr or Arg", "assay_type": "binding, Saccharomyces cerevisiae", "procedure": "The binding of RM-A to IleRS and the impact of intermediate analogue (Ile-AMS, MedChemExpress) or substrates on binding were evaluated by the fluorescence-based thermal shift assay (TSA). Ligand binding usually stabilizes the protein during the thermal denaturation process, and tighter binding usually causes a larger positive shift in the protein melting temperature (Tm)[45]. Briefly, mixtures with a final volume of 20 μL containing 150 mM NaCl, 100 mM HEPES (pH 7.5), 10% glycerol, 5 mM DTT, 2 μg of IleRS, 4× SYPRO orange fluorescence dye (Sigma-Aldrich) and different ligands (50 μM RM-A, 2 mM L-isoleucine, 2 mM ATP, or 50 μM Ile-AMS) were prepared in 96-well plates. The mixtures were incubated at 25 °C for 10 min and then heated from 25 °C to 95 °C at a rate of 1 °C/min. The fluorescence intensity was recorded by a StepOnePlus Real-Time PCR instrument (Life Technologies), and the maximums of the first derivatives were determined to calculate Tm values. Each Tm value was an average of triple assays."}, "Candida albicans": {"system": "Candida albicans", "set-up": "method as in PMID 1429226", "conditions": "pH 3.0; cited from earlier work"}, "osteoclasts (OCs)": {"system": "osteoclasts (OCs)", "conditions": "cited from earlier work"}, "[6]": {"conditions": "cited from earlier work"}, "[7]": {"system": "protein translation in rabbit reticulocyte lysate", "test": "Rescue of RM-A-inhibited in vitro translation by C-terminal truncated ScIleRS or its variants", "conditions": "for Luciferase luminescence, 200 nM RM-A: replicates I-III", "quoted_text": "as §1"}},
  "note": "Values joined by “and” are separate entries in the source; they are usually repeats but may differ in a detail not shown here. Equal entries are not always repeated. “Also recorded” adds a separate entry of the source.",
  "data": [
    {"smiles": "CCCC[C@@]1(OC(=O)CCC(=O)O)CC[C@]2(CC[C@H](C)[C@@H](C/C=C(C)/C=C/[C@H](O)[C@@H](C)/C=C/C(=O)O)O2)O[C@H]1/C=C/C(C)=C/C(=O)O", "note": "[RM-A, reveromycin A]", "values": [
      {"measurement": "Luminescence (in vitro protein translation)", "setting": "[1]; RM-A Conc 2 nM", "value": "190845 and 181490 and 183251"},
      {"measurement": "Luminescence (in vitro protein translation)", "setting": "[1]; RM-A Conc 8 nM", "value": "186149 and 190937 and 185903"},
      {"measurement": "Luminescence (in vitro protein translation)", "setting": "[1]; RM-A Conc 20 nM", "value": "175716 and 187102 and 188453"},
      {"measurement": "Luminescence (in vitro protein translation)", "setting": "[1]; RM-A Conc 40 nM", "value": "163497 and 184611 and 167689"},
      {"measurement": "Luminescence (in vitro protein translation)", "setting": "[1]; RM-A Conc 80 nM", "value": "7616.05 and 18001.9 and 7173.32"},
      {"measurement": "Luminescence (in vitro protein translation)", "setting": "[1]; RM-A Conc 200 nM", "value": "0 and 17.007 and 33.997"},
      {"measurement": "Luminescence (in vitro protein translation)", "setting": "[1]; RM-A Conc 800 nM", "value": "17.076 and 8.503 and 25.498"},
      {"measurement": "Luminescence (in vitro protein translation)", "setting": "[1]; RM-A Conc 4000 nM", "value": "0 (2×) and 50.995"},
      {"measurement": "protein translation rescued", "setting": "[2]", "value": "about 1%"},
      {"measurement": "inhibition of other AARS family members (LeuRS, ValRS)", "setting": "[3]", "value": "insensitive; also recorded: does not show significant inhibition"},
      {"measurement": "ovarian cancer and prostate cancer growth in vivo", "setting": "[4]", "value": "inhibit"},
      {"measurement": "binding of RM-A to ScIleRS variant (TSA)", "setting": "[5]", "value": "blocked the binding"},
      {"measurement": "MIC", "setting": "Candida albicans", "value": 3, "unit": "µM"},
      {"measurement": "apoptosis of osteoclasts (OCs)", "setting": "osteoclasts (OCs)", "value": "potently induce the apoptosis"},
      {"measurement": "more cytotoxic to OCs than to other types of cells, including OC progenitor cells", "setting": "osteoclasts (OCs)", "value": "at least 100 times"},
      {"measurement": "bone loss in ovariectomized mice", "setting": "[6]", "value": "suppress bone loss"},
      {"measurement": "protein translation rescued", "setting": "[7]; 200 nM RM-A, 3 μM C-terminal truncated ScIleRS variant with 600GRKMSKSLK608 replaced by -GSGS-", "value": "approximately 80%"},
      {"measurement": "Luciferase luminescence, 200 nM RM-A", "setting": "[7]; 1 μM LeuRS (control)", "value": "27.35 and 44.205 and 52.747"},
      {"measurement": "Luciferase luminescence, 200 nM RM-A", "setting": "[7]; 1 μM ScIleRS D527A", "value": "63.694 and 45.571 and 34.895"},
      {"measurement": "Luciferase luminescence, 200 nM RM-A", "setting": "[7]; 1 μM ScIleRS F48A", "value": "235.026 and 174.094 and 121.866"},
      {"measurement": "Luciferase luminescence, 200 nM RM-A", "setting": "[7]; 1 μM ScIleRS F48Y", "value": "90.991 and 72.914 and 115.108"},
      {"measurement": "Luciferase luminescence, 200 nM RM-A", "setting": "[7]; 1 μM ScIleRS F191A", "value": "156.784 and 298.475 and 281.964"},
      {"measurement": "Luciferase luminescence, 200 nM RM-A", "setting": "[7]; 1 μM ScIleRS P90A", "value": "35.934 and 81.508 and 9.028"},
      {"measurement": "Luciferase luminescence, 200 nM RM-A", "setting": "[7]; 1 μM ScIleRS R454A", "value": "2038.19 and 7956.68 and 7915.89"},
      {"measurement": "Luciferase luminescence, 200 nM RM-A", "setting": "[7]; 1 μM ScIleRS R460A", "value": "63.694 and 82.028 and 79.355"},
      {"measurement": "Luciferase luminescence, 200 nM RM-A", "setting": "[7]; 1 μM ScIleRS R462A", "value": "219.125 and 149.005 and 122.71"},
      {"measurement": "Luciferase luminescence, 200 nM RM-A", "setting": "[7]; 1 μM ScIleRS T572A", "value": "2721.39 and 8649.69 and 8296.21"},
      {"measurement": "Luciferase luminescence, 200 nM RM-A", "setting": "[7]; 1 μM ScIleRS V89A", "value": "11067.8 and 10750 and 22533.8"},
      {"measurement": "Luciferase luminescence, 200 nM RM-A", "setting": "[7]; 1 μM ScIleRS W402A", "value": "203.886 and 487.005 and 223.56"},
      {"measurement": "Luciferase luminescence, 200 nM RM-A", "setting": "[7]; 1 μM ScIleRS W456A", "value": "72.793 and 72.914 and 17.634"},
      {"measurement": "Luciferase luminescence, 200 nM RM-A", "setting": "[7]; 1 μM ScIleRS W529A", "value": "72.281 and 54.7 and 8.724"},
      {"measurement": "Luciferase luminescence, 200 nM RM-A", "setting": "[7]; 1 μM ScIleRS Y571A", "value": "36.141 and 88.172 and 61.066"},
      {"measurement": "Luciferase luminescence, 200 nM RM-A", "setting": "[7]; 1 μM ScIleRS del_KMSKS", "value": "1832.65 and 1584.88 and 8043.93"},
      {"measurement": "Luciferase luminescence, 200 nM RM-A", "setting": "[7]; 3 μM C-terminal truncated ScIleRS Wild-type", "value": "109159 and 108773 and 113203"},
      {"measurement": "Luciferase luminescence, 200 nM RM-A", "setting": "[7]; 3 μM LeuRS (control)", "value": 68.753},
      {"measurement": "Luciferase luminescence, 200 nM RM-A", "setting": "[7]; 3 μM ScIleRS D527A", "value": "8750.65 and 7744.02 and 12892"},
      {"measurement": "Luciferase luminescence, 200 nM RM-A", "setting": "[7]; 3 μM ScIleRS F48A", "value": "2036.32 and 2422.33 and 1991.71"},
      {"measurement": "Luciferase luminescence, 200 nM RM-A", "setting": "[7]; 3 μM ScIleRS F48Y", "value": "94.913 and 96.194 and 77.119"},
      {"measurement": "Luciferase luminescence, 200 nM RM-A", "setting": "[7]; 3 μM ScIleRS F191A", "value": "75050.4 and 67335.6 and 51978.3"},
      {"measurement": "Luciferase luminescence, 200 nM RM-A", "setting": "[7]; 3 μM ScIleRS P90A", "value": "99 and 117.664 and 109.334"},
      {"measurement": "Luciferase luminescence, 200 nM RM-A", "setting": "[7]; 3 μM ScIleRS R454A", "value": "116437 and 113410 and 111486"},
      {"measurement": "Luciferase luminescence, 200 nM RM-A", "setting": "[7]; 3 μM ScIleRS R460A", "value": "1567.03 and 1752.95 and 2655.99"},
      {"measurement": "Luciferase luminescence, 200 nM RM-A", "setting": "[7]; 3 μM ScIleRS R462A", "value": "27718.3 and 25034.8 and 41655.4"},
      {"measurement": "Luciferase luminescence, 200 nM RM-A", "setting": "[7]; 3 μM ScIleRS T572A", "value": "111134 and 106950 and 105037"},
      {"measurement": "Luciferase luminescence, 200 nM RM-A", "setting": "[7]; 3 μM ScIleRS V89A", "value": "100692 and 113636 and 118400"},
      {"measurement": "Luciferase luminescence, 200 nM RM-A", "setting": "[7]; 3 μM ScIleRS W402A", "value": "50779.2 and 51210.1 and 59141.2"},
      {"measurement": "Luciferase luminescence, 200 nM RM-A", "setting": "[7]; 3 μM ScIleRS W449A", "value": "115488 and 110666 and 106192"},
      {"measurement": "Luciferase luminescence, 200 nM RM-A", "setting": "[7]; 3 μM ScIleRS W456A", "value": "51.771 and 96.194 and 77.119"},
      {"measurement": "Luciferase luminescence, 200 nM RM-A", "setting": "[7]; 3 μM ScIleRS W529A", "value": "60.194 and 17.229 and 34.495"},
      {"measurement": "Luciferase luminescence, 200 nM RM-A", "setting": "[7]; 3 μM ScIleRS Y571A", "value": "11774.7 and 10611.3 and 9010.55"},
      {"measurement": "Luciferase luminescence, 200 nM RM-A", "setting": "[7]; 3 μM ScIleRS del_KMSKS", "value": "101448 and 100214 and 102556"}
    ]}
  ]
}
